Experimental data taken from patent US4442044A, “Process for preparing monoesters and diesters of N-alkyl substituted amino methyl phosphonic acid” (priority 1983, dated 1984).

What was measured:
Assay in all cases: post-emergent herbicidal activity, greenhouse
Type in all cases: in vivo
Soybean = details: Table II
Outline: (§1)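 Seeds or propagules sown in compacted top soil, grown 2–3 weeks in greenhouse, then sprayed with compound solution/suspension containing ~0.4% emulsifier at tabulated rates. Injury scored visually versus untreated controls at ~2 and 4 weeks after treatment, expressed as a herbicidal activity index.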

Velvetleaf = test system: Velvetleaf
Outline: as §1

Quackgrass = details: Table I, 4 WAT
Outline: as §1

Panicum Spp = details: Table II
Outline: as §1

Lambsquarters = test system: Lambsquarters
Outline: as §1

Downy Brome = test system: Downy Brome
Outline: as §1

Hemp Sesbania = details: Table II
Outline: as §1

Sugar Beet = details: Table II
Outline: as §1

Barnyardgrass = test system: Barnyardgrass
Outline: as §1

Morningglory = test system: Morningglory
Outline: as §1

Crabgrass = details: Table II
Outline: as §1

Smartweed = test system: Smartweed
Outline: as §1

Rice = details: Table II
Outline: as §1

Canada Thistle = details: Table I, 4 WAT
Outline: as §1

Sorghum = details: Table II
Outline: as §1

Wheat = details: Table II
Outline: as §1

Yellow Nutsedge = details: Table I, 4 WAT
Outline: as §1

Wild Buckwheat = details: Table II
Outline: as §1

Johnsongrass = details: Table I, 4 WAT
Outline: as §1

Cocklebur = test system: Cocklebur
Outline: as §1

CC(C#N)OP(=O)(O)CNCC(=O)OCc1ccccc1 (stereo not shown) [Example 10, glycine, N-[[(1-cyanoethoxy)hydroxyphosphinyl]methyl]-,phenylmethyl ester]
post-emergent herbicidal activity index (Soybean; 2 WAT, 0.011 kg/h): 0 (0-24% control)
post-emergent herbicidal activity index (Soybean; 2 WAT, 0.056 kg/h): 1 (25-49% control)
post-emergent herbicidal activity index (Soybean; 4 WAT, 0.28 kg/h): 1 (25-49% control)
post-emergent herbicidal activity index (Soybean; 4 WAT, 1.12 kg/h): 1 (25-49% control)
post-emergent herbicidal activity index (Soybean; 4 WAT, 5.6 kg/h): 3 (75-99% control)
post-emergent herbicidal activity index (Velvetleaf; Table I, 4 WAT, 5.6 kg/h): 3 (75-99% control)
post-emergent herbicidal activity index (Velvetleaf; Table I, 4 WAT, 11.2 kg/h): 3 (75-99% control)
post-emergent herbicidal activity index (Velvetleaf; Table II, 2 WAT, 0.011 kg/h): 0 (0-24% control)
post-emergent herbicidal activity index (Velvetleaf; Table II, 2 WAT, 0.056 kg/h): 0 (0-24% control)
post-emergent herbicidal activity index (Velvetleaf; Table II, 4 WAT, 0.28 kg/h): 1 (25-49% control)
post-emergent herbicidal activity index (Velvetleaf; Table II, 4 WAT, 1.12 kg/h): 1 (25-49% control)
post-emergent herbicidal activity index (Velvetleaf; Table II, 4 WAT, 5.6 kg/h): 1 (25-49% control)
post-emergent herbicidal activity index (Quackgrass; 5.6 kg/h): 2 (50-74% control)
post-emergent herbicidal activity index (Quackgrass; 11.2 kg/h): 2 (50-74% control)
post-emergent herbicidal activity index (Panicum Spp; 2 WAT, 0.011 kg/h): 0 (0-24% control)
post-emergent herbicidal activity index (Panicum Spp; 2 WAT, 0.056 kg/h): 0 (0-24% control)
post-emergent herbicidal activity index (Panicum Spp; 4 WAT, 0.28 kg/h): 3 (75-99% control)
post-emergent herbicidal activity index (Panicum Spp; 4 WAT, 1.12 kg/h): 4 (100% control)
post-emergent herbicidal activity index (Panicum Spp; 4 WAT, 5.6 kg/h): 4 (100% control)
post-emergent herbicidal activity index (Lambsquarters; Table I, 4 WAT, 5.6 kg/h): 3 (75-99% control)
post-emergent herbicidal activity index (Lambsquarters; Table I, 4 WAT, 11.2 kg/h): 3 (75-99% control)
post-emergent herbicidal activity index (Lambsquarters; Table II, 2 WAT, 0.011 kg/h): 0 (0-24% control)
post-emergent herbicidal activity index (Lambsquarters; Table II, 2 WAT, 0.056 kg/h): 1 (25-49% control)
post-emergent herbicidal activity index (Lambsquarters; Table II, 4 WAT, 0.28 kg/h): 2 (50-74% control)
post-emergent herbicidal activity index (Lambsquarters; Table II, 4 WAT, 1.12 kg/h): 3 (75-99% control)
post-emergent herbicidal activity index (Lambsquarters; Table II, 4 WAT, 5.6 kg/h): 3 (75-99% control)
post-emergent herbicidal activity index (Downy Brome; Table I, 4 WAT, 5.6 kg/h): 2 (50-74% control)
post-emergent herbicidal activity index (Downy Brome; Table I, 4 WAT, 11.2 kg/h): 1 (25-49% control)
post-emergent herbicidal activity index (Downy Brome; Table II, 2 WAT, 0.011 kg/h): 0 (0-24% control)
post-emergent herbicidal activity index (Downy Brome; Table II, 2 WAT, 0.056 kg/h): 0 (0-24% control)
post-emergent herbicidal activity index (Downy Brome; Table II, 4 WAT, 0.28 kg/h): 1 (25-49% control)
post-emergent herbicidal activity index (Downy Brome; Table II, 4 WAT, 1.12 kg/h): 2 (50-74% control)
post-emergent herbicidal activity index (Downy Brome; Table II, 4 WAT, 5.6 kg/h): 2 (50-74% control)
post-emergent herbicidal activity index (Hemp Sesbania; 2 WAT, 0.011 kg/h): 0 (0-24% control)
post-emergent herbicidal activity index (Hemp Sesbania; 2 WAT, 0.056 kg/h): 0 (0-24% control)
post-emergent herbicidal activity index (Hemp Sesbania; 4 WAT, 1.12 kg/h): 1 (25-49% control)
post-emergent herbicidal activity index (Hemp Sesbania; 4 WAT, 5.6 kg/h): 1 (25-49% control)
post-emergent herbicidal activity index (Sugar Beet; 2 WAT, 0.011 kg/h): 0 (0-24% control)
post-emergent herbicidal activity index (Sugar Beet; 2 WAT, 0.056 kg/h): 0 (0-24% control)
post-emergent herbicidal activity index (Sugar Beet; 4 WAT, 0.28 kg/h): 3 (75-99% control)
post-emergent herbicidal activity index (Sugar Beet; 4 WAT, 1.12 kg/h): 2 (50-74% control)
post-emergent herbicidal activity index (Sugar Beet; 4 WAT, 5.6 kg/h): 3 (75-99% control)
post-emergent herbicidal activity index (Barnyardgrass; Table I, 4 WAT, 5.6 kg/h): 2 (50-74% control)
post-emergent herbicidal activity index (Barnyardgrass; Table I, 4 WAT, 11.2 kg/h): 3 (75-99% control)
post-emergent herbicidal activity index (Barnyardgrass; Table II, 2 WAT, 0.011 kg/h): 0 (0-24% control)
post-emergent herbicidal activity index (Barnyardgrass; Table II, 2 WAT, 0.056 kg/h): 0 (0-24% control)
post-emergent herbicidal activity index (Barnyardgrass; Table II, 4 WAT, 0.28 kg/h): 2 (50-74% control)
post-emergent herbicidal activity index (Barnyardgrass; Table II, 4 WAT, 1.12 kg/h): 2 (50-74% control)
post-emergent herbicidal activity index (Barnyardgrass; Table II, 4 WAT, 5.6 kg/h): 3 (75-99% control)
post-emergent herbicidal activity index (Morningglory; Table I, 4 WAT, 5.6 kg/h): 2 (50-74% control)
post-emergent herbicidal activity index (Morningglory; Table I, 4 WAT, 11.2 kg/h): 2 (50-74% control)
post-emergent herbicidal activity index (Morningglory; Table II, 2 WAT, 0.011 kg/h): 0 (0-24% control)
post-emergent herbicidal activity index (Morningglory; Table II, 2 WAT, 0.056 kg/h): 0 (0-24% control)
post-emergent herbicidal activity index (Morningglory; Table II, 4 WAT, 0.28 kg/h): 2 (50-74% control)
post-emergent herbicidal activity index (Morningglory; Table II, 4 WAT, 1.12 kg/h): 2 (50-74% control)
post-emergent herbicidal activity index (Morningglory; Table II, 4 WAT, 5.6 kg/h): 2 (50-74% control)
post-emergent herbicidal activity index (Crabgrass; 2 WAT, 0.011 kg/h): 0 (0-24% control)
post-emergent herbicidal activity index (Crabgrass; 2 WAT, 0.056 kg/h): 1 (25-49% control)
post-emergent herbicidal activity index (Crabgrass; 4 WAT, 0.28 kg/h): 4 (100% control)
post-emergent herbicidal activity index (Crabgrass; 4 WAT, 1.12 kg/h): 4 (100% control)
post-emergent herbicidal activity index (Crabgrass; 4 WAT, 5.6 kg/h): 4 (100% control)
post-emergent herbicidal activity index (Smartweed; Table I, 4 WAT, 11.2 kg/h): 4 (100% control)
post-emergent herbicidal activity index (Smartweed; Table II, 2 WAT, 0.011 kg/h): 0 (0-24% control)
post-emergent herbicidal activity index (Smartweed; Table II, 2 WAT, 0.056 kg/h): 0 (0-24% control)
post-emergent herbicidal activity index (Smartweed; Table II, 4 WAT, 0.28 kg/h): 4 (100% control)
post-emergent herbicidal activity index (Smartweed; Table II, 4 WAT, 1.12 kg/h): 4 (100% control)
post-emergent herbicidal activity index (Smartweed; Table II, 4 WAT, 5.6 kg/h): 4 (100% control)
post-emergent herbicidal activity index (Rice; 2 WAT, 0.011 kg/h): 0 (0-24% control)
post-emergent herbicidal activity index (Rice; 2 WAT, 0.056 kg/h): 0 (0-24% control)
post-emergent herbicidal activity index (Rice; 4 WAT, 0.28 kg/h): 0 (0-24% control)
post-emergent herbicidal activity index (Rice; 4 WAT, 1.12 kg/h): 1 (25-49% control)
post-emergent herbicidal activity index (Rice; 4 WAT, 5.6 kg/h): 2 (50-74% control)
post-emergent herbicidal activity index (Canada Thistle; 5.6 kg/h): 1 (25-49% control)
post-emergent herbicidal activity index (Canada Thistle; 11.2 kg/h): 2 (50-74% control)
post-emergent herbicidal activity index (Sorghum; 2 WAT, 0.011 kg/h): 0 (0-24% control)
post-emergent herbicidal activity index (Sorghum; 2 WAT, 0.056 kg/h): 0 (0-24% control)
post-emergent herbicidal activity index (Sorghum; 4 WAT, 0.28 kg/h): 2 (50-74% control)
post-emergent herbicidal activity index (Sorghum; 4 WAT, 1.12 kg/h): 2 (50-74% control)
post-emergent herbicidal activity index (Sorghum; 4 WAT, 5.6 kg/h): 3 (75-99% control)
post-emergent herbicidal activity index (Wheat; 2 WAT, 0.011 kg/h): 0 (0-24% control)
post-emergent herbicidal activity index (Wheat; 2 WAT, 0.056 kg/h): 0 (0-24% control)
post-emergent herbicidal activity index (Wheat; 4 WAT, 0.28 kg/h): 1 (25-49% control)
post-emergent herbicidal activity index (Wheat; 4 WAT, 1.12 kg/h): 2 (50-74% control)
post-emergent herbicidal activity index (Wheat; 4 WAT, 5.6 kg/h): 2 (50-74% control)
post-emergent herbicidal activity index (Yellow Nutsedge; 5.6 kg/h): 1 (25-49% control)
post-emergent herbicidal activity index (Yellow Nutsedge; 11.2 kg/h): 1 (25-49% control)
post-emergent herbicidal activity index (Wild Buckwheat; 2 WAT, 0.011 kg/h): 0 (0-24% control)
post-emergent herbicidal activity index (Wild Buckwheat; 2 WAT, 0.056 kg/h): 0 (0-24% control)
post-emergent herbicidal activity index (Wild Buckwheat; 4 WAT, 0.28 kg/h): 1 (25-49% control)
post-emergent herbicidal activity index (Wild Buckwheat; 4 WAT, 1.12 kg/h): 2 (50-74% control)
post-emergent herbicidal activity index (Wild Buckwheat; 4 WAT, 5.6 kg/h): 3 (75-99% control)
post-emergent herbicidal activity index (Johnsongrass; 5.6 kg/h): 0 (0-24% control)
post-emergent herbicidal activity index (Johnsongrass; 11.2 kg/h): 1 (25-49% control)
post-emergent herbicidal activity index (Cocklebur; Table I, 4 WAT, 5.6 kg/h): 2 (50-74% control)
post-emergent herbicidal activity index (Cocklebur; Table I, 4 WAT, 11.2 kg/h): 2 (50-74% control)
post-emergent herbicidal activity index (Cocklebur; Table II, 2 WAT, 0.011 kg/h): 0 (0-24% control)
post-emergent herbicidal activity index (Cocklebur; Table II, 2 WAT, 0.056 kg/h): 0 (0-24% control)
post-emergent herbicidal activity index (Cocklebur; Table II, 4 WAT, 0.28 kg/h): 1 (25-49% control)
post-emergent herbicidal activity index (Cocklebur; Table II, 4 WAT, 1.12 kg/h): 2 (50-74% control)
post-emergent herbicidal activity index (Cocklebur; Table II, 4 WAT, 5.6 kg/h): 3 (75-99% control)
